According to patent US20100113437A1, “Active Compound Combinations Having Insecticidal and regular, utility” (BAYER CROPSCIENCE AG, priority 2006, published 2010):

Assays:
[1] = test system: Spodoptera frugiperda larvae; assay: Spodoptera frugiperda larvae test (Example F, spray); format: in vivo; conditions: single active compound
[2] = test system: Phaedon cochleariae larvae; assay: Phaedon cochleariae larvae test (Example D, spray); conditions: single active compound
Myzus persicae [3] = assay: Myzus persicae test (Example C, cabbage leaves sprayed, DMF); format: in vivo; conditions: single active compound
Aphis gossypii = Aphis gossypii test (Example A, cotton leaves dipped); format: in vivo; conditions: single active compound; for Kill in % after 1d: 100 ppm; for Kill in % after 6d: 0.8 ppm
[4] = test system: Spodoptera frugiperda larvae; assay: Spodoptera frugiperda larvae test (Example G, leaf dip); format: in vivo; conditions: single active compound; for Kill in % after 2d: 100 ppm; for Kill in % after 3d: 4 ppm
Plutella xylostella = Plutella xylostella test (Example E, leaf dip); format: in vivo; conditions: 0.8 ppm, single active compound
Tetranychus urticae = assay: Tetranychus test, OP-resistant/spray treatment (Example H); format: in vivo; conditions: single active compound; for Kill in % after 6d: 0.8 g/ha
Method: Disks of bean leaves (Phaseolus vulgaris) which are infested by all stages of the greenhouse red spider mite (Tetranychus urticae) are sprayed with an active compound preparation of the desired concentration.
After the desired period of time, the activity in % is determined.

Myzus persicae [5] = assay: Myzus persicae test (Example B, cabbage leaves sprayed, acetone/DMF); format: in vivo; conditions: single active compound

Question: For `N#Cc1ccc(CC(=NNC(=O)Nc2ccc(OC(F)(F)F)cc2)c2cccc(C(F)(F)F)c2)cc1` (mixture of isomers) [metaflumizone], which “Kill in % after 6d” value ([1]; 20 g/ha) is on record?
Answer: 83%

Question: And the “Kill in % after 6d” value ([2]; 100 g/ha)?
Answer: 0%

Question: Which “Kill in % after 1d” value (Myzus persicae [3]; 4 ppm) does the source give for `CNC(=O)c1cc(Cl)cc(C)c1NC(=O)c1cc(Br)nn1-c1ncccc1Cl` [Rynaxapyr] here?
Answer: 35%

Question: What about the “Kill in % after 2d” value ([1]; 0.8 g/ha) of the same compound?
Answer: 67%

Question: And the “Kill in % after 1d” value (Aphis gossypii)?
Answer: 75%

Question: With `CO[C@H]1CC[C@]2(CC1)NC(=O)C(c1cc(C)ccc1C)=C2O` [compound (I)] as the compound, how does the “Kill in % after 1d” value (Myzus persicae [3]; 4 ppm) read?
Answer: 0%

Question: And the “Kill in % after 1d” value (Myzus persicae [3]; 20 ppm)?
Answer: 15%

Question: And the “Kill in % after 2d” value [4]?
Answer: 0%

Question: What about the “Kill in % after 1d” value (Aphis gossypii) of the same compound?
Answer: 0%

Question: Which “Kill in % after 6d” value ([1]; 0.16 g/ha) does the source give for `CCOC(=O)OC1=C(c2cc(C)ccc2C)C(=O)N[C@]12CC[C@@H](OC)CC2` [compound (II)] here?
Answer: 0%

Question: What about the “Kill in % after 6d” value ([1]; 0.8 g/ha) of the same compound?
Answer: 0%

Question: And the “Kill in % after 2d” value ([1]; 4 g/ha)?
Answer: 0%

Question: And the “Kill in % after 2d” value ([1]; 20 g/ha)?
Answer: 0%

Question: What about the “Kill in % after 6d” value ([1]; 20 g/ha) of the same compound?
Answer: 0%

Question: What about the “Kill in % after 6d” value ([2]; 20 g/ha) of the same compound?
Answer: 17%

Question: What about the “Kill in % after 6d” value ([2]; 100 g/ha) of the same compound?
Answer: 50%

Question: And the “Kill in % after 6d” value (Plutella xylostella)?
Answer: 10%

Question: And the “Kill in % after 6d” value (Tetranychus urticae)?
Answer: 50%

Question: And the “Kill in % after 2d” value (Tetranychus urticae; 20 g/ha)?
Answer: 10%

Question: And the “Kill in % after 2d” value (Tetranychus urticae; 100 g/ha)?
Answer: 20%

Question: And the “Kill in % after 3d” value [4]?
Answer: 0%

Question: What about the “Kill in % after 6d” value (Aphis gossypii) of the same compound?
Answer: 0%

Question: And the “Kill in % after 1d” value (Myzus persicae [5]; 20 g/ha)?
Answer: 10%

Question: What about the “Kill in % after 1d” value (Myzus persicae [5]; 100 g/ha) of the same compound?
Answer: 10%

Question: With `CCOC(=O)OC1=C(c2cc(C)ccc2C)C(=O)NC12CCC(OC)CC2` (centres unmarked) [compound (IIa)] as the compound, how does the “Kill in % after 6d” value ([1]; 0.16 g/ha) read?
Answer: 0%

Question: And the “Kill in % after 6d” value ([1]; 0.8 g/ha)?
Answer: 0%

Question: And the “Kill in % after 2d” value ([1]; 4 g/ha)?
Answer: 0%

Question: And the “Kill in % after 2d” value ([1]; 20 g/ha)?
Answer: 0%

Question: What about the “Kill in % after 6d” value ([1]; 20 g/ha) of the same compound?
Answer: 0%

Question: What about the “Kill in % after 6d” value ([2]; 20 g/ha) of the same compound?
Answer: 0%

Question: What about the “Kill in % after 6d” value ([2]; 100 g/ha) of the same compound?
Answer: 67%

Question: What about the “Kill in % after 6d” value (Plutella xylostella) of the same compound?
Answer: 80%

Question: What about the “Kill in % after 6d” value (Tetranychus urticae) of the same compound?
Answer: 60%

Question: And the “Kill in % after 2d” value (Tetranychus urticae; 20 g/ha)?
Answer: 0%

Question: What about the “Kill in % after 2d” value (Tetranychus urticae; 100 g/ha) of the same compound?
Answer: 10%

Question: What about the “Kill in % after 3d” value [4] of the same compound?
Answer: 0%

Question: What about the “Kill in % after 6d” value (Aphis gossypii) of the same compound?
Answer: 0%

Question: What about the “Kill in % after 1d” value (Myzus persicae [5]; 20 g/ha) of the same compound?
Answer: 0%

Question: And the “Kill in % after 1d” value (Myzus persicae [5]; 100 g/ha)?
Answer: 0%

Question: How did the “Kill in % after 1d” value (Myzus persicae [3]; 4 ppm) turn out when `COC1CCC2(CC1)NC(=O)C(c1cc(C)ccc1C)=C2O` (centres unmarked) [compound (Ia)] was run?
Answer: 0%

Question: What about the “Kill in % after 1d” value (Myzus persicae [3]; 20 ppm) of the same compound?
Answer: 10%

Question: What about the “Kill in % after 2d” value [4] of the same compound?
Answer: 0%

Question: And the “Kill in % after 1d” value (Aphis gossypii)?
Answer: 0%

Question: Which “Kill in % after 2d” value (Tetranychus urticae; 20 g/ha) does the source give for `CC[S+]([O-])c1c(C#N)nn(-c2c(Cl)cc(C(F)(F)F)cc2Cl)c1N` (centres unmarked) [ethiprole] here?
Answer: 20%

Question: What does the source list for `N#Cc1nn(-c2c(Cl)cc(C(F)(F)F)cc2Cl)c(N)c1[S+]([O-])C(F)(F)F` (centres unmarked) [fipronil]?
Answer: Kill in % after 1d (Myzus persicae [3]; 20 ppm): 10%; Kill in % after 6d (Tetranychus urticae): 0%; Kill in % after 1d (Myzus persicae [5]; 20 g/ha): 20%

Question: `Cc1cc(C(F)(C(F)(F)F)C(F)(F)F)ccc1NC(=O)c1cccc(I)c1C(=O)NC(C)(C)CS(C)(=O)=O` [flubendiamide] was tested. Which “Kill in % after 6d” value ([1]; 0.8 g/ha) did it give?
Answer: 50%

Question: `O=C(NC(=O)c1c(F)cccc1F)Nc1ccc(Oc2ccc(C(F)(F)F)cc2Cl)cc1F` [flufenoxuron] was tested. Which “Kill in % after 6d” value ([1]; 0.16 g/ha) did it give?
Answer: 83%

Question: And the “Kill in % after 6d” value ([2]; 20 g/ha)?
Answer: 50%

Question: Which results are given for `O=C(NC(=O)c1c(F)cccc1F)Nc1cc(Cl)c(OC(F)(F)C(F)C(F)(F)F)cc1Cl` (centres unmarked) [lufenuron]?
Answer: Kill in % after 2d ([1]; 20 g/ha): 50%; Kill in % after 6d ([2]; 20 g/ha): 83%; Kill in % after 2d [4]: 40%

Question: Which “Kill in % after 2d” value (Tetranychus urticae; 100 g/ha) does the source give for `O=C(NC(=O)c1ccccc1Cl)Nc1ccc(OC(F)(F)F)cc1` [triflumuron] here?
Answer: 0%

Question: And the “Kill in % after 1d” value (Myzus persicae [5]; 100 g/ha)?
Answer: 0%

Question: How did the “Kill in % after 6d” value (Aphis gossypii) turn out when emamectin benzoate was run?
Answer: 15%
